Measured values published in EPA's ToxRefDB 2.

Tests used:
[1] = system: mouse; conditions: Carcinogenicity; b6c3f1; Oral; Feed; dose end: 24 month; group: systemic; systemic / in life observation / body weight / body weight gain
[2] = system: rat; conditions: Sub-acute repeat dose toxicity, sprague dawley, Oral, Gavage/Intubation, dose end: 1 month, group: systemic
[3] = system: dog; conditions: Chronic toxicity, beagle, Oral, Gavage/Intubation, dose end: 6 month, group: systemic
[4] = system: rat; conditions: Prenatal developmental toxicity study, sprague dawley, Oral, Gavage/Intubation, dose end: 17 GD
[5] = system: rabbit; conditions: Prenatal developmental toxicity study; new zealand white; Oral; Gavage/Intubation; dose end: 19 GD; group: maternal; reproductive / reproductive performance / postimplantation loss / postimplantation loss + reproductive / reproductive performance / …
[6] = system: rat; conditions: Prenatal developmental toxicity study, sprague dawley, Oral, Gavage/Intubation, dose end: 17 GD; remark: listed apart in the source
[7] = system: rat; conditions: Fertility (Segment I), sprague dawley, Oral, Gavage/Intubation, dose end: 7 GD
[8] = system: rat; conditions: Chronic toxicity, sprague dawley, Oral, Gavage/Intubation, dose end: 6 month, group: systemic
[9] = system: dog; conditions: Sub-acute repeat dose toxicity, beagle, Oral, Gavage/Intubation, dose end: 1 month, group: systemic
[10] = system: rat; conditions: Fertility (Segment I), sprague dawley, Oral, Gavage/Intubation, dose end: 7 GD; remark: listed apart in the source
[11] = system: rabbit; conditions: Prenatal developmental toxicity study; new zealand white; Oral; Gavage/Intubation; dose end: 19 GD; group: maternal; reproductive / reproductive performance / resorptions / resorptions + systemic / in life observation / body weight / body weight gain + …
[12] = system: rat; conditions: Prenatal developmental toxicity study, sprague dawley, Oral, Gavage/Intubation, dose end: 17 GD, group: maternal
[13] = system: mouse; conditions: Carcinogenicity, b6c3f1, Oral, Feed, dose end: 78 week, group: systemic
[14] = system: rat; conditions: Carcinogenicity, other, Oral, Feed, dose end: 78 week, group: systemic
[15] = system: rat; conditions: Combined chronic toxicity/carcinogenicity; sprague dawley; Oral; Feed; dose end: 2 year; group: systemic; systemic / in life observation / body weight / body weight gain
[16] = system: rat; conditions: Subchronic oral toxicity in rodents, other, Feed, dose end: 92 day, group: systemic
[17] = system: rabbit; conditions: Prenatal developmental toxicity study, new zealand white, Oral, Gavage/Intubation, dose end: 19 GD
[18] = system: rat; conditions: Combined chronic toxicity/carcinogenicity, sprague dawley, Oral, Feed, dose end: 104 week, group: systemic
[19] = system: rat; conditions: Subchronic oral toxicity in rodents, Tif: RAIf (SPF), Feed, dose end: 13 week, group: systemic, systemic / in life observation / body weight / body weight + systemic / in life observation / body weight / body weight gain + systemic / …
[20] = system: dog; conditions: Subchronic oral toxicity in nonrodent, beagle, Feed, dose end: 13 week, group: systemic
[21] = system: mouse; conditions: Carcinogenicity, cd1, Oral, Feed, dose end: 91 week, group: systemic
[22] = system: rabbit; conditions: Prenatal developmental toxicity study, new zealand white, Oral, Gavage/Intubation, dose end: 19 GD; remark: listed apart in the source
[23] = system: rat; conditions: Prenatal developmental toxicity study, sprague dawley, Oral, Gavage/Intubation, dose end: 15 GD
[24] = system: dog; conditions: Chronic toxicity; beagle; Oral; Feed; dose end: 52 week; group: systemic; systemic / in life observation / clinical signs / [other] + systemic / in life observation / clinical signs / tachycardia + systemic / …
[25] = system: dog; conditions: Chronic toxicity; beagle; Oral; Feed; dose end: 52 week; group: systemic; systemic / pathology gross / heart / discolored + systemic / pathology gross / heart / distended + systemic / pathology gross / heart / …
[26] = systemic / clinical chemistry / alanine aminotransferase (alt/sgpt) / alanine aminotransferase (alt/sgpt) + systemic / clinical chemistry / …
[27] = systemic / in life observation / body weight / body weight + systemic / organ weight / thymus / absolute + systemic / organ weight / thymus…
[28] = group: developmental, systemic / in life observation / body weight / fetal weight
[29] = group: maternal, reproductive / reproductive performance / aborted / aborted + reproductive / reproductive performance / gestation index / gestation index + …
[30] = group: maternal, reproductive / reproductive performance / aborted / aborted + reproductive / reproductive performance / postimplantation loss / …
[31] = group: maternal, reproductive / reproductive performance / estrous cycle / corpora lutea + reproductive / reproductive performance / implantations / …
[32] = group: parental, systemic / in life observation / body weight / body weight gain + systemic / in life observation / food consumption / food consumption
[33] = systemic / pathology gross / uterus / dilatation
[34] = systemic / pathology microscopic / parathyroid gland / adenoma + systemic / clinical chemistry / alanine aminotransferase (alt/sgpt) / …
[35] = systemic / hematology / erythrocyte (rbc) count differential / erythrocyte (rbc) + systemic / hematology / hematocrit (hct) / hematocrit (…
[36] = group: maternal, reproductive / reproductive performance / estrous cycle / abnormal + reproductive / reproductive performance / estrous cycle / corpora lutea…
[37] = group: parental, systemic / in life observation / body weight / body weight + systemic / in life observation / body weight / body weight gain + systemic / in…
[38] = systemic / in life observation / body weight / body weight gain + systemic / in life observation / food consumption / food consumption
[39] = systemic / in life observation / body weight / body weight gain + systemic / in life observation / food consumption / food consumption + …
[40] = systemic / in life observation / body weight / body weight
[41] = systemic / in life observation / body weight / body weight + systemic / pathology microscopic / liver / carcinoma + systemic / in life …
[42] = systemic / in life observation / body weight / body weight + systemic / pathology microscopic / testes / atrophy
[43] = systemic / pathology microscopic / adrenal gland / adenoma + systemic / in life observation / body weight / body weight + systemic / in life…
[44] = systemic / hematology / leukocyte (wbc) count differential / leukocyte (wbc)
[45] = group: developmental, developmental / developmental malformation / bone / delayed ossification
[46] = group: maternal, reproductive / reproductive performance / resorptions / resorptions + systemic / in life observation / body weight / body weight + systemic…
[47] = systemic / pathology microscopic / kidney / basophilia + systemic / pathology microscopic / kidney / hyperplasia + systemic / hematology / …
[48] = systemic / in life observation / body weight / body weight gain + systemic / hematology / erythrocyte (rbc) count differential / erythrocyte…
[49] = group: maternal, reproductive / reproductive performance / resorptions / resorptions + systemic / in life observation / clinical signs / discharge on …
[50] = group: developmental, developmental / developmental malformation / bone / incomplete ossification
[51] = group: maternal, reproductive / reproductive performance / aborted / aborted + systemic / in life observation / body weight / body weight gain + systemic / …

## Cc1c(C(=O)O)c(O)cc2c1C(=O)c1c(O)c([C@@H]3O[C@H](CO)[C@@H](O)[C@H](O)[C@H]3O)c(O)c(O)c1C2=O [Carminic acid]
[1]
  LEL: 4500 mg/kg/day
  LOAEL: > 9000 mg/kg/day
  NEL: < 4500 mg/kg/day
  NOAEL: ≥ 9000 mg/kg/day

## CN(C)C(=O)NC1(c2ccccc2)CCN(CCC[C@]2(c3ccc(Cl)c(Cl)c3)CCCN(C(=O)c3ccccc3)C2)CC1
[2]; [26]
  LOAEL: > 250 mg/kg/day
  NEL: 25 mg/kg/day
  NOAEL: ≥ 250 mg/kg/day
[2]; systemic / pathology gross / mammary gland / [other]
  LEL: 75 mg/kg/day
[3]; [26]
  LOAEL: > 90 mg/kg/day
  NOAEL: ≥ 90 mg/kg/day
[3]; [27]
  LEL: 10 mg/kg/day
  NEL: < 10 mg/kg/day
[4]; [28]
  LEL: 200 mg/kg/day
  LOAEL: > 200 mg/kg/day
  NEL: 75 mg/kg/day
  NOAEL: ≥ 200 mg/kg/day
[4]; [29]
  LEL: 200 mg/kg/day
  LOAEL: 200 mg/kg/day
  NEL: 75 mg/kg/day
  NOAEL: 75 mg/kg/day
[5]
  LEL: 50 mg/kg/day
  LOAEL: > 100 mg/kg/day
  NEL: < 50 mg/kg/day
  NOAEL: ≥ 100 mg/kg/day
[6]; [28]
  LEL: 250 mg/kg/day
  LOAEL: > 250 mg/kg/day
  NEL: < 250 mg/kg/day
  NOAEL: ≥ 250 mg/kg/day
[6]; [30]
  LEL: 250 mg/kg/day
  LOAEL: > 250 mg/kg/day
  NEL: < 250 mg/kg/day
  NOAEL: ≥ 250 mg/kg/day
[7]; [31]
  LEL: 150 mg/kg/day
  LOAEL: > 150 mg/kg/day
  NEL: 75 mg/kg/day
  NOAEL: ≥ 150 mg/kg/day
[7]; [32]
  LEL: 150 mg/kg/day
  LOAEL: > 150 mg/kg/day
  NEL: 75 mg/kg/day
  NOAEL: ≥ 150 mg/kg/day
[8]; [33]
  LEL: 25 mg/kg/day
  NEL: < 25 mg/kg/day
[8]; [34]
  LOAEL: > 250 mg/kg/day
  NOAEL: ≥ 250 mg/kg/day
[9]; [26]
  LOAEL: > 360 mg/kg/day
  NOAEL: ≥ 360 mg/kg/day
[9]; [35]
  LEL: 40 mg/kg/day
  NEL: < 40 mg/kg/day
[10]; [36]
  LOAEL: > 250 mg/kg/day
  NEL: 75 mg/kg/day
  NOAEL: ≥ 250 mg/kg/day
[10]; [31]
  LEL: 150 mg/kg/day
[10]; [37]
  LOAEL: > 250 mg/kg/day
  NOAEL: ≥ 250 mg/kg/day
[10]; [32]
  LEL: 75 mg/kg/day
  NEL: < 75 mg/kg/day
[11]
  LEL: 75 mg/kg/day
  LOAEL: > 75 mg/kg/day
  NEL: 25 mg/kg/day
  NOAEL: ≥ 75 mg/kg/day
[12]; [38]
  LEL: 100 mg/kg/day
  LOAEL: 100 mg/kg/day
[12]; [39]
  NEL: 50 mg/kg/day
  NOAEL: 50 mg/kg/day

## CCOC(=O)C(O)(c1ccc(Cl)cc1)c1ccc(Cl)cc1 [Chlorobenzilate]
[13]; [40]
  LOAEL: 480 mg/kg/day
  NOAEL: < 480 mg/kg/day
[13]; [41]
  LEL: 480 mg/kg/day
  NEL: < 480 mg/kg/day
[14]; [42]
  LOAEL: 80 mg/kg/day
  NOAEL: < 80 mg/kg/day
[14]; [43]
  LEL: 58.8 mg/kg/day
  NEL: < 58.8 mg/kg/day

## CCNc1nc(Cl)nc(NC(C)C)n1 [Atrazine]
[15]
  LEL: 25 mg/kg/day
  LOAEL: 25 mg/kg/day
  NEL: 3.5 mg/kg/day
  NOAEL: 3.5 mg/kg/day
[16]; [44]
  LEL: 0.659 mg/kg/day
  NEL: < 0.659 mg/kg/day
[16]; systemic / in life observation / body weight / body weight + systemic / in life observation / body weight / body weight gain
  LOAEL: 34 mg/kg/day
[16]; systemic / in life observation / body weight / body weight + systemic / in life observation / body weight / body weight gain + systemic / …
  NOAEL: 3.3 mg/kg/day
[17]; [45]
  LEL: 75 mg/kg/day
  LOAEL: 75 mg/kg/day
  NEL: 5 mg/kg/day
  NOAEL: 5 mg/kg/day
[17]; [46]
  LEL: 75 mg/kg/day
  LOAEL: 75 mg/kg/day
  NEL: 5 mg/kg/day
  NOAEL: 5 mg/kg/day
[18]; [38]
  LOAEL: 25 mg/kg/day
[18]; [39]
  NEL: 0.5 mg/kg/day
  NOAEL: 3.5 mg/kg/day
[18]; systemic / pathology microscopic / mammary gland / adenocarcinoma
  LEL: 3.5 mg/kg/day
[19]
  LEL: 34.9 mg/kg/day
  LOAEL: 34.9 mg/kg/day
  NEL: 3.2 mg/kg/day
  NOAEL: 3.2 mg/kg/day
[20]; systemic / pathology microscopic / kidney / basophilia + systemic / pathology microscopic / kidney / hyperplasia
  LOAEL: 28.9 mg/kg/day
[20]; [47]
  LEL: 28.9 mg/kg/day
  NEL: 3.71 mg/kg/day
  NOAEL: 3.71 mg/kg/day
[21]; systemic / in life observation / body weight / body weight gain
  LOAEL: 194 mg/kg/day
[21]; [48]
  LEL: 194 mg/kg/day
  NEL: 38.4 mg/kg/day
  NOAEL: 38.4 mg/kg/day
[22]; [45]
  LEL: 75 mg/kg/day
  LOAEL: 75 mg/kg/day
  NEL: 5 mg/kg/day
  NOAEL: 5 mg/kg/day
[22]; [49]
  LEL: 75 mg/kg/day
  LOAEL: 75 mg/kg/day
  NEL: 5 mg/kg/day
  NOAEL: 5 mg/kg/day
[23]; [50]
  LEL: 5 mg/kg/day
  LOAEL: 100 mg/kg/day
  NEL: < 5 mg/kg/day
  NOAEL: 25 mg/kg/day
[23]; group: maternal, reproductive / reproductive performance / aborted / aborted
  LEL: 25 mg/kg/day
[23]; [51]
  NEL: 5 mg/kg/day
  NOAEL: 25 mg/kg/day
[23]; group: maternal, systemic / in life observation / body weight / body weight gain + systemic / in life observation / food consumption / food consumption
  LOAEL: 100 mg/kg/day
[24]
  LEL: 33.6 mg/kg/day
  LOAEL: 33.6 mg/kg/day
  NEL: 4.97 mg/kg/day
  NOAEL: 4.97 mg/kg/day
[25]
  LEL: 24.1 mg/kg/day
  LOAEL: 24.1 mg/kg/day
  NEL: 3.61 mg/kg/day
  NOAEL: 3.61 mg/kg/day
